For one test, the target named is Carbonic anhydrase 1 (Homo sapiens, UniProt P00915). Put plainly: Inhibition of human CA I assessed as inhibition constant by stopped-flow CO2 hydrase assay method.
Another test deals with Carbonic anhydrase 2 (Homo sapiens, UniProt P00918). Put plainly: Inhibition of human CA II assessed as inhibition constant by stopped-flow CO2 hydrase assay method.
The next test has as its target Carbonic anhydrase 9 (Homo sapiens, UniProt Q16790). Put plainly: Inhibition of human CA IX assessed as inhibition constant by stopped-flow CO2 hydrase assay method.
In another test the target is Carbonic anhydrase 12 (Homo sapiens, UniProt O43570). Put plainly: Inhibition of human CA XII assessed as inhibition constant by stopped-flow CO2 hydrase assay method.
Carbonic anhydrase 12, sequence (O43570 whole entry): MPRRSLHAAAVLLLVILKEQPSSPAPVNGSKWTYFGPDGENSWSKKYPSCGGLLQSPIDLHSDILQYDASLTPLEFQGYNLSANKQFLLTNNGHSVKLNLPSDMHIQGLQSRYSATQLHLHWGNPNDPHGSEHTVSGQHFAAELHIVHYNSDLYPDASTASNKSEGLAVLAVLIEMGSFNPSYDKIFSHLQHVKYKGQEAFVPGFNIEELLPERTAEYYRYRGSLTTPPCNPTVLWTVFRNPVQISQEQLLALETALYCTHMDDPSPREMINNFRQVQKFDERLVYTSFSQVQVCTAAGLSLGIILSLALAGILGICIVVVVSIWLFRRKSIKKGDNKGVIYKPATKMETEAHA

Structures are written as SMILES. pKi: −log10 of the molar value.

Carbonic anhydrase 1, sequence (P00915 whole entry): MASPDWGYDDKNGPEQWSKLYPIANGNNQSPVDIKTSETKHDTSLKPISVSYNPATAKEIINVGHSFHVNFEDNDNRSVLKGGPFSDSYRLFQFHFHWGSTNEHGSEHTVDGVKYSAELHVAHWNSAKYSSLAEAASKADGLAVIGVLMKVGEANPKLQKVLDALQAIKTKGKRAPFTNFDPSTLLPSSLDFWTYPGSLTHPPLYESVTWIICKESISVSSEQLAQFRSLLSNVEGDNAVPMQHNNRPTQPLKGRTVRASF

`CC1=NN(c2ccc(C#N)cc2)C(=O)/C1=N/Nc1ccc(S(N)(=O)=O)cc1`: the pKi – broadly, −log10 of the Ki, conventionally taken in molar units – is 6.30 on Carbonic anhydrase 1, 7.23 at Carbonic anhydrase 2, 8.49 at Carbonic anhydrase 9 and 8.04 on Carbonic anhydrase 12.
For `CC1=NN(c2ccccc2)C(=O)/C1=N/Nc1cccc(S(N)(=O)=O)c1`, in that order: 5.08, 8.18, 7.82 and 7.27.
Turning to `CC1=NN(c2ccc(C#N)cc2)C(=O)/C1=N/Nc1cccc(S(N)(=O)=O)c1`, the pKi is 6.31 on Carbonic anhydrase 1, 9.30 at Carbonic anhydrase 2, 7.22 at Carbonic anhydrase 9 and 8.41 on Carbonic anhydrase 12.
For `CC1=NN(c2ccccc2Cl)C(=O)/C1=N/Nc1ccc(S(N)(=O)=O)cc1`, in that order: 5.13, 7.11, 7.51 and 7.13.
Taken in the same sequence, the figures for `CC1=NN(c2ccc(C)cc2)C(=O)/C1=N/Nc1ccc(S(N)(=O)=O)cc1` were 6.47, 8.21, 7.60 and 7.18.
Taken in the same sequence, the figures for `CC1=NN(c2ccc(Cl)cc2Cl)C(=O)/C1=N/Nc1cccc(S(N)(=O)=O)c1` were 4.27, 6.33, 6.80 and 6.56.
As to `CC1=NN(c2ccc(Cl)cc2Cl)C(=O)/C1=N/Nc1ccc(S(N)(=O)=O)cc1`, the pKi at Carbonic anhydrase 1 was 5.28; at Carbonic anhydrase 2, 7.14; at Carbonic anhydrase 9, 8.07; on Carbonic anhydrase 12, 8.17.
For `CC1=NN(c2ccccc2Cl)C(=O)/C1=N/Nc1cccc(S(N)(=O)=O)c1`, in that order: 5.04, 6.54, 7.15 and 6.91.
On to `CC1=NNC(=O)/C1=N/Nc1cccc(S(N)(=O)=O)c1`, for which the pKi on Carbonic anhydrase 1 is 6.66; at Carbonic anhydrase 2, 6.86; on Carbonic anhydrase 9, 7.64; at Carbonic anhydrase 12 it was 7.06.
Turning to `CC1=NN(c2ccc(Cl)cc2)C(=O)/C1=N/Nc1ccc(S(N)(=O)=O)cc1`, the pKi on Carbonic anhydrase 1 is 5.06; on Carbonic anhydrase 2, 7.68; at Carbonic anhydrase 9, 8.96; at Carbonic anhydrase 12 it was 7.61.
Regarding `CC1=NNC(=O)/C1=N/Nc1ccc(S(N)(=O)=O)cc1`, the pKi is 7.27 at Carbonic anhydrase 1, 8.60 at Carbonic anhydrase 2, 7.44 at Carbonic anhydrase 9 and 6.79 at Carbonic anhydrase 12.
On to `CC1=NN(c2ccccc2)C(=O)/C1=N/Nc1ccc(S(N)(=O)=O)cc1`, for which the pKi was 6.15 at Carbonic anhydrase 1, 8.06 on Carbonic anhydrase 9 and 7.31 at Carbonic anhydrase 12.
Regarding `CC1=NN(c2ccc(C)cc2)C(=O)/C1=N/Nc1cccc(S(N)(=O)=O)c1`, the pKi is 6.42 on Carbonic anhydrase 1, 6.73 on Carbonic anhydrase 2, 7.35 at Carbonic anhydrase 9 and 7.39 on Carbonic anhydrase 12.
Taken in the same sequence, the figures for `CC1=NN(c2ccc(Cl)cc2)C(=O)/C1=N/Nc1cccc(S(N)(=O)=O)c1` were 5.11, 6.49, 7.40 and 7.04.
